Assay results reported in patent publication US9474730B2, “Methods and compositions for use with K-ras mediated disorders” (Board of Regents of the University of Texas System, priority 2012, dated 2016).
Structures can show the parent of a compound that is named as a salt.

How the values were obtained:
[1] = test system: Raf kinase activity in BHK cells stably expressing K-rasG12V; assay: Raf kinase assay on membrane fractions of treated cells (coupled MEK/ERK assay); type: cell-based, hamster; details: 6 μg/mL, 48 h; phosphorylation of recombinant ERK substrate
Procedure: (§1) FIG. 5: Illustrates that fendiline HCl inhibits Raf kinase activity and signaling downstream of oncogenic K-ras: BHK cells stably expressing K-rasG12V were treated with vehicle or fendiline HCl (6 μg/mL) for 48 h. (A) Raf kinase activity in membrane fractions prepared from the cells was measured in a coupled […] kinase assay. Data is shown as mean±SEM from 3 independent experiments. (B) ppMEK and ppERK in soluble protein fraction and pAkt levels in membrane protein fraction were measured by quantitative Western blotting. Actin and Akt were used as loading controls for soluble and membrane fractions, respectively. A representative blots are shown. Data is shown as mean±SEM from 3-4 independent experiments. Statistical significance was calculated using one way ANOVA and Student's T-test. (*=p<0.05), wherein experimentation was performed in accordance with principles described herein;
Membrane (P100) fractions were prepared from BHK or MDCK cells were dissolved in Buffer A containing 1% TritonX100. Solubilized P100 fractions were incubated with combinations of recombinant MEK and ERK in the presence of Mg^2+-ATP (40 mM and 0.5 mM, respectively) After 30 min at 30° C. with vigorous shaking, the pMEK and ppERK levels were determined by quantitative Western blotting.

[2] = test system: MDCK and BHK cells expressing oncogenic mutant H-RasG12V; assay: Signaling in cells expressing oncogenic H-RasG12V, Western blotting; type: cell-based, canine (MDCK), hamster (BHK); details: to the similar extent as in K-rasG12V cells, 6 μg/mL, 48 h
Procedure: FIG. 7: Illustrates that H-rasG12V signals through endogenous K-ras: BHK cells stably expressing H-rasG12V were treated with vehicle or fendiline HCl (6 μg/mL) for 48 h. (A) ppMEK and ppERK in soluble protein fraction and pAkt levels in membrane protein fraction were measured by quantitative Western blotting. A representative blots are shown. (B) BHK cells stably expressing H-rasG12V were transfected with K-ras siRNA encoding plasmid. 24 h after transfection, cells were treated with vehicle or fendiline HCl (6 μg/mL) for a further 48 h. Whole cell lysates were prepared from serum starved cells and analyzed by quantitative Western blotting. Representative Western blots are shown. Data is shown as mean±SEM from 6 independent experiments. […] (*=p<0.05), and experimentation was performed in accordance with principles described herein;
(§2) Preparation of whole-cell lysates: cells were lysed in Buffer B (50 mM Tris [pH 7.5], 75 mM NaCl, 25 mM NaF, 5 mM MgCl2, 5 mM EGTA, 1 mM dithiothreitol, 100 μM NaVO4, 1% Nonidet P-40 plus protease inhibitors). Cellular fractionation: cells were incubated in Buffer A (10 mm Tris-HCl, pH 7.5, 25 mm NaF, 5 mm MgCl2, 1 mm EGTA, 1 mm dithiothreitol, 100 μm NaVO4 plus protease inhibitors) for 30 minutes on ice and lysed by passing through a 27 G needle 30 times. The post nuclear supernatant was centrifuged at 100,000 g for 30 minutes and the membrane pellet was resuspended in Buffer A containing 1% Triton X-100.
(§3) Quantification of intensities was performed using FluorChemQ software.

[3] = target: T1, mGFP-tagged H-rasG12V in BHK cells (Homo sapiens, UniProt P01112, G12V); assay: Immuno-electron microscopy and spatial analysis of plasma membrane sheets, H-rasG12V; type: cell-based, hamster; details: 6 μg/mL, 48 h
T1 construct: BHK cells expressing GFP-tagged full length constitutively active Ras (G12V) proteins; expressed in transfected cells
Procedure: FIG. 4: Illustrates that fendiline HCl alters plasma membrane association and nanoclustering of K-ras: Plasma membrane sheets were generated from cells expressing GFP-K-rasG12V or GFP-H-rasG12V. Cells were treated with vehicle or fendiline HCl (6 μg/mL) for 48 h. Plasma membrane sheets were labeled with anti-GFP antibody conjugated to 4.5 nm gold. The plasma membrane sheets were imaged in an electron microscope and the spatial distribution of the gold labeling was analyzed using Ripley's K-function. Maximum L(r)-r values above the 99% confidence interval (C.I.) for complete spatial randomness (CSR) indicate clustering at that value of r. […] Significant differences from the control pattern for fendiline treated cells were assessed using bootstrap tests, wherein experimentation was performed in accordance with principles described herein;
Immuno-EM and spatial analysis were conducted exactly as described previously (Hancock, J. F., and Prior, I. A. (2005). Electron microscopic imaging of Ras signaling domains. Methods 37, 165-172; Prior, I. A., Muncke, C., Parton, R. G., and Hancock, J. F. (2003). Direct visualization of Ras proteins in spatially distinct cell surface microdomains. J Cell Biol 160, 165-170). […] Intact 1-μm^2 areas of the plasma membrane sheet were identified using ImageJ, and the x-y coordinates of the gold particles were determined. […]

[4] = test system: BHK cells stably expressing K-rasG12V; assay: Signaling downstream of oncogenic K-ras by quantitative Western blotting; type: cell-based, hamster; details: 6 μg/mL, 48 h, K-rasG12V BHK cells
Procedure: as §1, §2, §3

CC(NCCC(c1ccccc1)c1ccccc1)c1ccccc1 (stereo not drawn) [fendiline HCl]
reduction of the amount of active Raf compared to vehicle-treated control [1]: approximately 60%
pAkt levels [2]: decreased
pERK levels [2]: decreased
pMEK levels [2]: decreased
clustering of H-rasG12V on plasma membrane [3]: reduced clustering of both K- and H-rasG12V proteins
membrane association of H-rasG12V (EM gold labeling) [3]: slightly increases membrane association of H-rasG12V
pAkt levels ([4]; membrane fraction): decreases the pAkt levels, although not statistically significant
cellular levels of pERK ([4]; vs vehicle): significantly reduces
cellular levels of pMEK ([4]; vs vehicle): significantly reduces
